Test results published in publication PMC5234776, “Study of the Antimicrobial Activity of Tilapia Piscidin 3 (TP3) and TP4 and Their Effects on Immune Functions in Hybrid Tilapia (Oreochromis spp.)” (PLoS ONE, 2017).
Where two headings read alike, the source gives them in different places. Peptide text beside a SMILES is read from it.

Assays:
tilapia = assay: Toxicity of peptide alone, tilapia survival; assay type: in vivo, tilapia (Oreochromis spp.); conditions: abdominal cavity, no infection, seven days (S2 Fig)
Method: The antimicrobial activities of TP3 and TP4 peptides were analyzed in tilapia infected with lethal amounts of bacteria. Different amounts of V. vulnificus were injected into the abdominal cavities of the fish, and survival rates were recorded as cumulative percentages (S1 Fig). To determine whether TP3 and TP4 had any toxic effects on the tilapia, we injected different doses of TP3 and TP4 (0.1, 1, 10, 20, 30, 40, or 50 μg/fish) into the abdominal cavity and recorded the cumulative survival percentage of the fish (S2 Fig). We also co-treated tilapia with different doses (0.1, 1, 10, 20 μg/fish) of TP3 or TP4 combined with 2x10^4 CFU of V. vulnificus to evaluate tilapia survival following treatment. […] After 14, 21, or 28 days following the first co-treatment with TP3, the tilapia that survived in the 20 μg/fish TP3 experimental group were injected with a second dose of 2x10^4 CFU of V. vulnificus, and the survival rates were measured for another seven days. […] In the co-treatment experiments, at 14, 21, or 28 days after the first co-treatment with TP4, the surviving tilapia in the 20 μg/fish TP4 experimental group received a second injection of 2x10^4 CFU of V. vulnificus, and the survival rates were measured for another seven days.
Supplementary file pone.0169678.s002.pdf: S2 Fig Determination of tilapia survival rates seven days after injection with different concentrations of TP3 or TP4. (a) The survival rates of tilapia injected with TP3 at a dose of 0.1 μg/fish, 1 μg/fish, or 10 μg/fish. (b) The percentage of tilapia surviving after injection with TP4 at 0.1 μg/fish, 1 μg/fish, or 10 μg/fish. (c) The percentage of tilapia surviving after injection with TP3 at 20 μg/fish, 30 μg/fish, 40 μg/fish, or 50 μg/fish. (d) The percentage of tilapia surviving after injection with TP4 at 20 μg/fish, 30 μg/fish, 40 μg/fish, or 50 μg/fish. The control group (control) was injected with PBS alone. (PDF) Click here for additional data file.

in vivo = assay: in vivo; design: species or system tilapia (Oreochromis hybrids, Tilapia spp.); conditions: iv, 0.2 mg/kg
Method: The peptide half-life of TP3 and TP4 were investigated in male tilapia (Oreochromis hybrids, Tilapia spp., with a mean body length of 32.33±1.5 cm and a mean body weight of 1117±78.2 g) after intravenous administration of a single dose of 0.2 mg/kg of peptide. The TP3 and TP4 concentrations in serum samples were determined at 10, 30, 60, 120, 180, 240, 300, and 360 minutes for TP3 and at 10, 60, 120, 180, 240, 300, and 360 minutes after dosing for TP4. At each sample collection time point, we anesthetized three fish and collected their blood. The blood was centrifuged to obtain fish serum, which was assessed by liquid chromatography-mass spectrometry/mass spectrometry (LC-MS/MS) at Mission Biotech (Taipei, Taiwan).

[1] = system: IL-1β, IL-6, IL-8, Mcp-8, β-defensin; assay: qPCR of immune-related gene expression in tilapia liver and spleen; assay type: in vivo, tilapia (Oreochromis spp.); conditions: in words; for expression of immune-related genes IL-1β, IL-6, IL-8 and MCP-8: co-treatment or peptide treatment alone; for expression of TP2, TP3, TP4 or β-defensin antimicrobial peptide genes in liver: peptide alone or co-treatment, 3 hours after treatment
Method: Total RNA was isolated from the tilapia by peptide treatment before, concurrent with and after infection as described above. The groups included one that was only injected with V. vulnificus (2×10^5 CFU/fish) and one that was only injected with peptides (20 μg/fish). Samples were collected at 3, 6, 12, 24, and 48 hours after treatment to extract RNA, and the levels of tilapia total RNA obtained from the liver and spleen were determined with comparative real-time qRT-PCR analysis of all experimental groups. Real-time qRT-PCR was used to detect the levels of IL-1β (GenBank accession no. DQ061114.1), IL-6 (GenBank accession no. XM_005478656), IL-8 (GenBank accession no. NM001279706), Mcp-8 (GenBank accession no. XM_005478749) and β-defensin (GenBank accession no. KF294753). mRNA was isolated and transcribed into complementary first strands (c) according to previously published methods for real-time comparative qPCR to obtain DNA and detect the relative expression levels of each gene. All samples were examined in triplicate using a sample size of five tilapia. The reactions used to analyze gene expression consisted of 0.05 μg of total RNA. Comparative qRT-PCR Mastermix for the SYBR Green kit (Applied Biosystems, Perkin-Elmer) was used for quantification. The total reaction volume was 20 μl; the reactions were run in 96-well plates; and the program consisted of 40 cycles of 3 seconds at 95°C and 20 seconds at 60°C. We added a dissociation thermal start temperature of […] to each experiment to analyze the melting peaks of the generated PCR products. The data from each experiment were expressed as a ratio of the specific target gene expression/β-actin RNA expression. We used t-tests to compare groups, and multiple group comparisons were tested by ANOVA in SPSS software. Differences were defined as significant at P<0.05 (*), <0.01 (**), and <0.001 (***).

V. vulnificus = assay type: cell-based, Vibrio vulnificus
Method: To understand the effects of pH on TP3 or TP4, the reagents were dissolved in ddH2O, 1 M HCl or 1 M NaOH to obtain solutions with different pH values. For the temperature-dependent functional study, the TP3 or TP4 was added to a solution in a water bath (Basic life, model BL3002, Taiwan) and incubated for 60 minutes at different temperatures (40, 60, 80, or 100°C). To evaluate the effects of TP3 and TP4 on pepsin and trypsin function, each peptide was incubated for 10 or 30 minutes with different concentrations of pepsin or trypsin (0.1, 1, or 10 μg/ml), and we determined the MIC values after incubating these solutions with cells at 28°C for 720 minutes, according to a previously described MIC experimental protocol.

CC[C@H](C)[C@H](NC(=O)[C@H](CC(C)C)NC(=O)[C@H](CO)NC(=O)[C@H](Cc1c[nH]cn1)NC(=O)[C@@H](NC(=O)[C@H](Cc1c[nH]cn1)NC(=O)[C@H](CCCCN)NC(=O)CNC(=O)[C@@H](NC(=O)[C@H](CO)NC(=O)[C@H](Cc1ccccc1)NC(=O)[C@H](CC(C)C)NC(=O)CNC(=O)CNC(=O)[C@@H](NC(=O)[C@@H](NC(=O)[C@H](Cc1c[nH]cn1)NC(=O)[C@H](Cc1c[nH]cn1)NC(=O)[C@@H](NC(=O)[C@@H](N)Cc1ccccc1)[C@@H](C)CC)[C@@H](C)CC)[C@@H](C)CC)C(C)C)[C@@H](C)CC)C(=O)N[C@@H](Cc1c[nH]cn1)C(=O)NCC(=O)N[C@@H](Cc1c[nH]cn1)C(=O)O [TP3, tilapia piscidin 3] (H-FIHHIIGGLFSVGKHIHSLIHGH-OH)
percent survival after injection of peptide only (tilapia; 20 μg/fish): 86.7%
percent survival after injection of peptide only (tilapia; 30 μg/fish): 73.3%
percent survival after injection of peptide only (tilapia; 40 μg/fish): 66.7%
percent survival after injection of peptide only (tilapia; 50 μg/fish): 56.7%
half-life of the injected peptide in tilapia serum (in vivo): 2 to 3 h
expression of immune-related genes IL-1β, IL-6, IL-8 and MCP-8 [1]: down-regulation
expression of TP2, TP3, TP4 or β-defensin antimicrobial peptide genes in liver [1]: down-regulated
IL-1β, IL-6, IL-8, Mcp-8 and β-defensin gene expression in liver ([1]; pre-treatment and post-treatment groups, three hours after infection with V. vulnificus): significantly higher levels
IL-1β, IL-6, IL-8 and β-defensin gene expression in spleen ([1]; pre-treatment and post-treatment, three hours after infection): significant increase

CC[C@H](C)[C@H](NC(=O)[C@H](C)NC(=O)[C@H](CCCCN)NC(=O)CNC(=O)[C@H](C)NC(=O)[C@H](CO)NC(=O)[C@H](Cc1ccccc1)NC(=O)[C@H](CC(C)C)NC(=O)CNC(=O)CNC(=O)[C@@H](NC(=O)[C@@H](NC(=O)[C@H](Cc1c[nH]cn1)NC(=O)[C@H](Cc1c[nH]cn1)NC(=O)[C@@H](NC(=O)[C@@H](N)Cc1ccccc1)[C@@H](C)CC)[C@@H](C)CC)[C@@H](C)CC)C(=O)N[C@@H](Cc1c[nH]cn1)C(=O)N[C@@H](CCCNC(=N)N)C(=O)N[C@@H](CC(C)C)C(=O)N[C@H](C(=O)N[C@@H](CCCNC(=N)N)C(=O)N[C@@H](CCCNC(=N)N)C(=O)N[C@@H](CCCNC(=N)N)C(=O)N[C@@H](CCCNC(=N)N)C(=O)N[C@@H](CCCNC(=N)N)C(=O)O)[C@@H](C)CC [TP4, tilapia piscidin 4] (H-FIHHIIGGLFSAGKAIHRLIRRRRR-OH)
decrease of antimicrobial activity (V. vulnificus; pepsin 0.1 μg/ml, 30 minutes): eight-fold
decrease of antimicrobial activity (V. vulnificus; pepsin 1 μg/ml, 10 minutes): two-fold
decrease of antimicrobial activity (V. vulnificus; trypsin 1 μg/ml, 10 minutes): two-fold
decrease of antimicrobial activity (V. vulnificus; trypsin 1 μg/ml, 30 minutes): four-fold
decrease of antimicrobial activity (V. vulnificus; trypsin 10 μg/ml, 10 minutes): eight-fold
expression of immune-related genes IL-1β, IL-6, IL-8 and MCP-8 [1]: down-regulation
IL-1β, IL-6, IL-8 and Mcp-8 expression in spleen ([1]; peptide alone or co-injected with V. vulnificus, 12 hours after treatment): lower
expression of TP2, TP3, TP4 or β-defensin antimicrobial peptide genes in liver [1]: down-regulated
